Several values for one entry are separate records, joined by “and”; a condition that tells them apart may be missing. Equal entries are not always repeated.
Assays:
[1] = tested on: P. aeruginosa NCTC 10662 biofilm; assay: MBEC model (ASTM E2799), liquid formulas; assay type: cell-based; conditions: treated 24 hours
Method: (§1) The MBEC model (ASTM E2799) was used to assess the anti-biofilm efficacy of the liquid formulas. Biofilms were grown on polystyrene pegs in the MBEC model for either 24 or 48 hours before treatment. Using the liquid form of the EDTA complexes 24- and 48-hour biofilms were tested (Table 20).
(§2) 24- and 48-hour biofilms were formed using MBEC plate method and treated for 24 hours. Technical replicates n=3. Log reduction (LR) values show±standard error (SE) of LR value.

[2] = tested on: S. aureus MRSA BAA-43 biofilm; assay: MBEC model (ASTM E2799), liquid formulas; assay type: cell-based; conditions: treated 24 hours
Method: as §1, §2

[3] = tested on: E. faecalis ATCC 29212 biofilm; assay: MBEC model (ASTM E2799), liquid formulas; assay type: cell-based; conditions: treated 24 hours
Method: as §1, §2

[4] = tested on: S. epidermidis ATCC 35984 biofilm; assay: MBEC model (ASTM E2799), liquid formulas; assay type: cell-based; conditions: treated 24 hours
Method: as §1, §2

[5] = tested on: S. aureus ATCC 29213 biofilm; assay: MBEC model (ASTM E2799), liquid formulas; assay type: cell-based; conditions: treated 24 hours
Method: as §1, §2

interleukin-6 (IL-6) = assay: IL-6 ELISA, wounded biofilm-containing Labskin; assay type: cell-based; conditions: 100 ppm; vs S. aureus wound biofilm control
From the text: Enzyme-linked immunosorbent assay (ELISA) was used to assess the secreted levels of the inflammatory cytokine interleukin-6 (IL-6) according to previously published methods (Foster, A. M., Baliwag, J., Chen, C. S., Guzman, A. M., Stoll, S. W., Gudjonsson, J. E., Ward, N. L. & Johnston, A. 2014, IL-36 promotes myeloid cell infiltration, activation, and inflammatory activity in skin, The Journal of Immunology, 192, 6053-6061). […] The IL-6 levels were reduced further when compared to the S. aureus wound biofilm control.
ELISA was used to assess the levels of IL-6 in conditioned cell culture medium. Culture medium was changed at day 4, which accounts for the reduction in IL-6. […] Tests were performed in duplicate. Error bars indicate standard deviation.

[6] = tested on: P. aeruginosa 24-hour CDC biofilms; assay: Colonies after exposure of 24-hour CDC biofilms to EDTA compounds; assay type: cell-based
[7] = Displacement of metals from EDTA complexes by physiological saline; assay type: physicochemical
Method: Adding saline to the suspension of Ag4(EDTA), the suspension quickly precipitated a solid (AgCl). The precipitate was filtered off, washed with deionized water 4 times; and then dried in a vacuum oven at 50° C. in a dark flask to avoid exposure to direct light.
The displacement experiment described above was repeated for compounds 1-4 to provide the percent of the displacement of silver, copper, zinc from the EDTA complexes by physiological saline.

cells = assay: Direct cytotoxicity, Neutral Red Uptake assay
[8] = tested on: S. aureus 24-hour CDC biofilms; assay: Colonies after exposure of 24-hour CDC biofilms to EDTA compounds; assay type: cell-based
S. aureus wound biofilm = assay: Wound biofilm model (Labskin), histological examination; assay type: cell-based; conditions: 100 ppm; day 6; vs untreated S. aureus wound biofilm
[9] = Elution from collagen films; assay type: physicochemical; conditions: for Elution in saline (ppm) EDTA / Elution in saline (ppm) Zinc / Elution in water (ppm) EDTA / Elution in saline (ppm) Silver / Elution in water (ppm) Silver / Elution in water (ppm) Zinc: collagen film; for Overall zinc eluted out from collagen films: 5 days; for In total EDTA eluted out from collagen films: over 5 days; for In total silver eluted out from collagen films: over the 5 days
Method: The EDTA compounds 1-4 were added to collagen films and then investigated for elution of these complexes. The collagen film was prepared from a solution of oxidized bovine atelocollagen type I, glycerol and EDTA compounds 1-4. 1.8 ml 10% glycerol solution was added into 20 ml oxidized bovine atelocollagen type I solution. 5 ml EDTA complex were added into the solution with vigorous stirring, and the mixture was adjusted to pH=7.0 by dropwise addition of 5% NaOH. The final solution was adjusted to 30 ml by ultrapure water and was cast into PVC mould. The solution was dried in a fume hood overnight. All the collagen films, impregnated with the EDTA complexes were immersed in water, saline or simulated wound fluid.

P. aeruginosa biofilms [10] = assay: MBEC plate 48-hour biofilm, liquid EDTA-Ag2-Zn compound; assay type: cell-based
From the text: Biofilms were formed using the MBEC plate method. Log reduction (LR) values are expressed with standard error. N.D (not determined) is stated when no colonies were detected upon enumeration.

P. aeruginosa biofilms [11] = assay: CDC bioreactor biofilm LR/kill, EDTA compounds at 100 ppm silver; assay type: cell-based; conditions: 100 ppm of silver, exposed 24 hours
Method: (§3) Microbial cultures were exposed to compounds for 24 hours. Compounds were diluted according to 100 ppm of silver. Biofilms were formed using the CDC bioreactor. Samples were performed in triplicate.

S. aureus biofilms = assay: as above; assay type: cell-based; conditions: 100 ppm of silver, exposed 24 hours
Method: as §3

[12] = day 1, listed as EDTA compound 4

O=C([O-])CN(CCN(CC(=O)[O-])CC(=O)[O-])CC(=O)[O-].[Ag+].[Ag+].[Zn+2] [Compound 4, Ag2ZnEDTA]
Kill % ([1]; 50 ppm, 24-Hour Biofilm): 100%
LR ([1]; 50 ppm, 24-Hour Biofilm): 7.44
Kill % ([1]; 50 ppm, 48-Hour Biofilm): 100%
LR ([1]; 50 ppm, 48-Hour Biofilm): 8.44
Kill % ([1]; 100 ppm, 24-Hour Biofilm): 100%
LR ([1]; 100 ppm, 24-Hour Biofilm): 7.44
Kill % ([1]; 100 ppm, 48-Hour Biofilm): 100%
LR ([1]; 100 ppm, 48-Hour Biofilm): 8.44
Kill % ([2]; 50 ppm, 24-Hour Biofilm): 100%
LR ([2]; 50 ppm, 24-Hour Biofilm): 5.40
Kill % ([2]; 50 ppm, 48-Hour Biofilm): 100%
LR ([2]; 50 ppm, 48-Hour Biofilm): 6.43
Kill % ([2]; 100 ppm, 24-Hour Biofilm): 100%
LR ([2]; 100 ppm, 24-Hour Biofilm): 5.40
Kill % ([2]; 100 ppm, 48-Hour Biofilm): 100%
LR ([2]; 100 ppm, 48-Hour Biofilm): 6.43
Kill % ([3]; 50 ppm, 24-Hour Biofilm): 100%
LR ([3]; 50 ppm, 24-Hour Biofilm): 6.35
Kill % ([3]; 50 ppm, 48-Hour Biofilm): 100%
LR ([3]; 50 ppm, 48-Hour Biofilm): 6.40
Kill % ([3]; 100 ppm, 24-Hour Biofilm): 100%
LR ([3]; 100 ppm, 24-Hour Biofilm): 6.35
Kill % ([3]; 100 ppm, 48-Hour Biofilm): 100%
LR ([3]; 100 ppm, 48-Hour Biofilm): 6.40
Kill % ([4]; 50 ppm, 24-Hour Biofilm): 100%
LR ([4]; 50 ppm, 24-Hour Biofilm): 6.09
Kill % ([4]; 50 ppm, 48-Hour Biofilm): 100%
LR ([4]; 50 ppm, 48-Hour Biofilm): 6.41
Kill % ([4]; 100 ppm, 24-Hour Biofilm): 100%
LR ([4]; 100 ppm, 24-Hour Biofilm): 6.09
Kill % ([4]; 100 ppm, 48-Hour Biofilm): 100%
LR ([4]; 100 ppm, 48-Hour Biofilm): 6.41
Kill % ([5]; 50 ppm, 24-Hour Biofilm): 100%
LR ([5]; 50 ppm, 24-Hour Biofilm): 6.44
Kill % ([5]; 50 ppm, 48-Hour Biofilm): 100%
LR ([5]; 50 ppm, 48-Hour Biofilm): 6.50
Kill % ([5]; 100 ppm, 24-Hour Biofilm): 100%
LR ([5]; 100 ppm, 24-Hour Biofilm): 6.44
Kill % ([5]; 100 ppm, 48-Hour Biofilm): 100%
LR ([5]; 100 ppm, 48-Hour Biofilm): 6.50
secreted IL-6 (inflammatory marker) (interleukin-6 (IL-6)): significant reduction
Number of colonies detected [6]: 0 Cfu/ml
Displacement (%) Silver [7]: 80.77 ± 6.45%
Displacement (%) Zinc [7]: 38.86 ± 9.01 %
Interpretation (cells; 25 ppm): Cytotoxic (if the percentage viability is less than 70% of the untreated control, then the substance is considered cytotoxic)
Percentage of Control/Percentage Viability (%) (cells; 25 ppm): 62.67 ± 20.39%
Interpretation (cells; 50 ppm): Non cytotoxic (if the percentage viability is less than 70% of the untreated control, then the substance is considered cytotoxic)
Percentage of Control/Percentage Viability (%) (cells; 50 ppm): 72.93% and 72.93 ± 12.90%
Interpretation (cells; 100 ppm): Cytotoxic (if the percentage viability is less than 70% of the untreated control, then the substance is considered cytotoxic)
Percentage of Control/Percentage Viability (%) (cells; 100 ppm): 56.41 ± 1.83%
Number of colonies detected [8]: 0 Cfu/ml
amount of microorganisms within the tissues (histology) (S. aureus wound biofilm): reduced amount of microorganisms within the tissues
Elution in saline (ppm) EDTA ([9]; day 1): 9.75 ± 1.31 ppm
Elution in saline (ppm) Zinc ([9]; day 1): 5.65 ± 0.06 ppm
Elution in water (ppm) EDTA ([9]; day 1): 9.25 ± 0.90 ppm
Elution in saline (ppm) Silver [9, 12]: 20.34±1.42 ppm
Elution in water (ppm) Silver [9, 12]: 19.08±0.92 ppm
Elution in water (ppm) Zinc [9, 12]: 9.86±0.39 ppm
Elution in saline (ppm) EDTA ([9]; day 2): 0.47 ± 0.35 ppm
Elution in saline (ppm) Silver ([9]; day 2): 14.49 ± 2.63 ppm
Elution in saline (ppm) Zinc ([9]; day 2): 6.26 ± 0.67 ppm
Elution in water (ppm) EDTA ([9]; day 2): 0.96 ± 0.64 ppm
Elution in water (ppm) Silver ([9]; day 2): 12.61 ± 1.04 ppm
Elution in water (ppm) Zinc ([9]; day 2): 9.60 ± 0.33 ppm
Elution in saline (ppm) EDTA ([9]; day 3): 0.40 ± 0.08 ppm
Elution in saline (ppm) Silver ([9]; day 3): 15.23 ± 2.41 ppm
Elution in saline (ppm) Zinc ([9]; day 3): 6.44 ± 0.60 ppm
Elution in water (ppm) EDTA ([9]; day 3): 1.53 ± 1.08 ppm
Elution in water (ppm) Silver ([9]; day 3): 10.64 ± 1.19 ppm
Elution in water (ppm) Zinc ([9]; day 3): 8.08 ± 0.70 ppm
Elution in saline (ppm) EDTA ([9]; day 4): −0.13 ± 0.90 ppm
Elution in saline (ppm) Silver ([9]; day 4): 12.93 ± 2.10 ppm
Elution in saline (ppm) Zinc ([9]; day 4): 5.58 ± 0.33 ppm
Elution in water (ppm) EDTA ([9]; day 4): 0.24 ± 0.28 ppm
Elution in water (ppm) Silver ([9]; day 4): 9.56 ± 0.79 ppm
Elution in water (ppm) Zinc ([9]; day 4): 6.24 ± 0.40 ppm
Elution in saline (ppm) EDTA ([9]; day 5): −0.07 ± 0.93 ppm
Elution in saline (ppm) Silver ([9]; day 5): 13.30 ± 2.14 ppm
Elution in saline (ppm) Zinc ([9]; day 5): 5.18 ± 0.15 ppm
Elution in water (ppm) EDTA ([9]; day 5): 1.17 ± 1.31 ppm
Elution in water (ppm) Silver ([9]; day 5): 10.35 ± 0.73 ppm
Elution in water (ppm) Zinc ([9]; day 5): 6.53 ± 0.23 ppm
Overall zinc eluted out from collagen films ([9]; in saline): 27.36%
In total EDTA eluted out from collagen films ([9]; in saline): 13.44%
In total silver eluted out from collagen films ([9]; in saline): 66.22%
Overall zinc eluted out from collagen films ([9]; in water): 37.89%
In total EDTA eluted out from collagen films ([9]; in water): 16.95%
In total silver eluted out from collagen films ([9]; in water): 54.03%
% Kill (P. aeruginosa biofilms [10]; 62.5 ppm, treatment 1 hours): 100%
% Kill (P. aeruginosa biofilms [10]; 62.5 ppm, treatment 24 hours): 100%
% Kill (P. aeruginosa biofilms [10]; 125 ppm, treatment 1 hours): 100%
% Kill (P. aeruginosa biofilms [10]; 125 ppm, treatment 24 hours): 100%
% Kill (P. aeruginosa biofilms [10]; 250 ppm, treatment 1 hours): 100%
% Kill (P. aeruginosa biofilms [10]; 250 ppm, treatment 24 hours): 100%
% Kill (P. aeruginosa biofilms [10]; 500 ppm, treatment 1 hours): 100%
% Kill (P. aeruginosa biofilms [10]; 500 ppm, treatment 24 hours): 100%
% Kill (P. aeruginosa biofilms [10]; 1000 ppm, treatment 1 hours): 100%
% Kill (P. aeruginosa biofilms [10]; 1000 ppm, treatment 24 hours): 100%
Kill % (P. aeruginosa biofilms [11]): 99.95%
LR (P. aeruginosa biofilms [11]): 3.34 ± 0.11
Kill % (S. aureus biofilms): 99.98%
LR (S. aureus biofilms): 3.73 ± 0.18
